Two compounds from ChEMBL document CHEMBL4619732, “Two new secondary metabolites, saccharochlorines A and B, from a marine bacterium Saccharomonospora sp. KCTC-19160” (Bioorg Med Chem Lett, 2020) can be followed below.

The source made the active and inactive calls. The rule behind the calls is not given here.

Assay [1] concerns SH-SY5Y. The assay can be described thus: Induction of amyloid beta (1 to 40) secretion in human SH-SY5Y cells incubated for overnight by ELISA. The assay is classed as functional, cell-based.
Assay [2] concerns H4. Nature of the assay: Induction of amyloid beta (1 to 42) secretion in human H4 cells overexpressing APP incubated for overnight by ELISA. Format: functional, cell-based. (In an ELISA, binding on a coated surface is turned into a signal by an enzyme label.)
Assay [3] relates to SH-SY5Y. The assay can be described thus: Induction of amyloid beta (1 to 42) secretion in human SH-SY5Y cells incubated for overnight by ELISA. The assay is classed as functional, cell-based.
For assay [4], the system named is H4. The assay can be described thus: Induction of amyloid beta (1 to 40) secretion in human H4 cells overexpressing APP incubated for overnight by ELISA. The assay is classed as functional, cell-based.
The species named for the next assay is Homo sapiens. Nature of the assay: Inhibition of monoamine oxidase (unknown origin).

As for `CO/C(=C\c1ccc(O)c(Cl)c1)C(=O)O`, the result in the assay on SH-SY5Y [1] and in the assay on SH-SY5Y [3] was inactive. Also, the Activity entry in the assay with H4 [2] and in the assay with H4 [4] was “Dose-dependent effect” in each case. Further, the inhibition result in the assay filed under Homo sapiens is “inactive”.
As to `CO/C(=C\c1cc(Cl)c(O)c(Cl)c1)C(=O)O`, the outcome with SH-SY5Y [1] and in the assay on SH-SY5Y [3] was inactive. Also, the Activity result with H4 [2] and with H4 [4] was “Dose-dependent effect” each time. In the assay listed under Homo sapiens, the inhibition result is “inactive”.
